# Measurements taken from US20050136444A1 (priority 2003, published 2005).
# Where a name gives a salt, the structure may show the parent alone.
# Key:
# NPFF2 = target: T1, NPFF2 (Homo sapiens, UniProt Q9Y5X5); test: Receptor Selection and Amplification Technology (R-SAT) functional assay, NPFF2; type: cell-based; conditions: R-SAT, Table 1; for Emax: Efficacy is relative to endogenous ligand, read-out: NPFF2 % Efficacy; for EC50: NA = No activity detectable at the highest dose tested (20 μM), read-out: NPFF2 pEC50 (converted)
# T1 construct: expressed in transfected cells; host or cells: NIH3T3
# Procedure: (§1) Briefly, NIH3T3 cells were grown in 96 well tissue culture plates to 70-80% confluence. Cells were transfected for 16-20 h h with plasmid DNAs using Polyfect (Qiagen Inc.) as per manufacturer's protocols. R-SAT's were generally performed with 40 ng/well of receptor and 20 ng/well of β-galactosidase plasmid DNA. All receptor and G-protein constructs used were in the pSI-derived mammalian expression vector (Promega Inc) as described previously. […] For large-scale transfections, cells were transfected for 16-20 h, then trypsinized and frozen in DMSO. Frozen cells were later thawed, plated at ˜20,000 cells per well of a 96 half-area well plate that contained drug. With both methods, cells were then grown in a humidified atmosphere with 5% ambient CO2 for five days. Media was then removed from the plates and marker gene activity was measured by the addition of the β-galactosidase substrate o-nitrophenyl β-D-galactopyranoside (ONPG, in PBS with 0.5% NP-40). The resulting colorimetric reaction was measured in a spectrophotometric plate reader (Titertek Inc.) at 420 nm. All data were analyzed using the computer program XLFit (IDBSm).
# (§2) R-SAT assay was conducted as set forth in […]
# NPFF1 = NPFF1 (Homo sapiens, UniProt Q9GZQ6); test: Receptor Selection and Amplification Technology (R-SAT) functional assay, NPFF1; type: cell-based; parameters: expressed in transfected cells; host or cells: NIH3T3; conditions: R-SAT, Table 1; for Emax: Efficacy is relative to endogenous ligand, read-out: NPFF1 % Efficacy; for EC50: NA = No activity detectable at the highest dose tested (20 μM), read-out: NPFF1 pEC50 (converted)
# Procedure: as §1, §2
# T1 sequence (Q9Y5X5 103-522): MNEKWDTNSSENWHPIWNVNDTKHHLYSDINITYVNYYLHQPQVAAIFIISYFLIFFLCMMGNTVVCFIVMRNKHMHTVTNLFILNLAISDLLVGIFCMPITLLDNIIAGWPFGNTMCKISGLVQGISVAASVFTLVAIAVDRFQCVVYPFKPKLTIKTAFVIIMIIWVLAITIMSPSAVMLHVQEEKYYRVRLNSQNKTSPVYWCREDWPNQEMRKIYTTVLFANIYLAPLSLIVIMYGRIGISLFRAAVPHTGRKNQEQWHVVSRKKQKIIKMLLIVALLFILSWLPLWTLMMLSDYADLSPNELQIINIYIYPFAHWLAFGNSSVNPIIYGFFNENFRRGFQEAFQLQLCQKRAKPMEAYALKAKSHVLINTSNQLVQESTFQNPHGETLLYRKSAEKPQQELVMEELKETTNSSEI
# Sequence of NPFF1 (Q9GZQ6 whole entry, species assumed): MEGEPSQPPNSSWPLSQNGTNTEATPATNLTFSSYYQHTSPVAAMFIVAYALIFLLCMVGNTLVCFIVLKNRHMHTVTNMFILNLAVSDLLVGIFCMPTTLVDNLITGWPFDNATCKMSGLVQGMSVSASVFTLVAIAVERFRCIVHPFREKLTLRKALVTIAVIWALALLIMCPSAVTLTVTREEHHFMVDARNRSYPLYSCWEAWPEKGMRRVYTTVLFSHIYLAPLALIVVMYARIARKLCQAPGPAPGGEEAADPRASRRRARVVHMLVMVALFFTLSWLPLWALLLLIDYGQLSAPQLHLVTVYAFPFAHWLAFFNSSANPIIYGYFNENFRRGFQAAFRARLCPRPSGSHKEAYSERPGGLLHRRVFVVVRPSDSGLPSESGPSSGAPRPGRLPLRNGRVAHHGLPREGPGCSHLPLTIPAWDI
SMILES,Emax (NPFF2),EC50 (NPFF2),Emax (NPFF1),EC50 (NPFF1)
"CCCOc1ccc(C=NNC(=N)N)cc1 [Compound 4006, 1-(4-n-Propoxybenzylideneamino)guanidine Hydrochloride]",53%,2 µM,78%,3.98 µM
"COc1cc(OC)c(C=NNC(=N)N)cc1Br [Compound 4015, 1-(5-Bromo-2,4-dimethoxybenzylideneamino)guanidine Hydrochloride]",64%,2 µM,37%,7.94 µM
"CC(=NNC(=N)N)c1cccc(C)c1 [Compound 3017, 1-[1-(3-Methylphenyl)ethylideneamino]guanidine Hydrochloride]",80%,6.31 µM,17%,
"N=C(N)NN=Cc1cc(C(F)(F)F)ccc1Cl [Compound 2069, 1-[2-Chloro-5-(trifluoromethyl)benzylideneamino]guanidine Hydrochloride]",40%,3.16 µM,8%,
"CCc1ccc(C(C)=NNC(=N)N)cc1 [Compound 3020, 1-[1-(4-Ethylphenyl)ethylideneamino]guanidine Hydrochloride]",115%,1.26 µM,41%,3.98 µM
"CC(=NNC(=N)N)c1cccc(C(F)(F)F)c1 [Compound 3027, 1-{1-[3-(Trifluoromethyl)phenyl]ethylideneamino}guanidine Hydrochloride]",63%,1.26 µM,5%,
"Cc1cc(C=NNC(=N)N)cc(C)c1O [Compound 2033, 1-(3,5-Dimethyl-4-hydroxybenzylideneamino)guanidine Hydrochloride]",33%,10 µM,7%,
"CCCCCCc1ccc(C(C)=NNC(=N)N)cc1 [Compound 3023, Hydrochloride]",22%,1.26 µM,29%,0.501 µM
"COc1ccc(OC)c(C=NNC(=N)N)c1 [Compound 3005, 1-(2,5-Dimethoxybenzylideneamino)guanidine Hydrochloride]",59%,7.94 µM,3%,
"CC(=NNC(=N)N)c1ccc2c(c1)OCO2 [Compound 3032, 1-[1-(Benzo[1,3]dioxol-5-yl)ethylideneamino]guanidine Hydrochloride]",78%,3.98 µM,36%,12.6 µM
"CC(=NNC(=N)N)c1ccc(C)c(C)c1 [Compound 3021, 1-[1-(3,4-Dimethylphenyl)ethylideneamino]guanidine Hydrochloride]",70%,2.51 µM,32%,10 µM
"CCN(CC)c1ccc(C=NNC(=N)N)c(OC)c1 [Compound 3043, 1-(2-Methoxy-4-N,N-diethylaminobenzylideneamino)guanidine Hydrochloride]",92%,1 µM,60%,1 µM
"N=C(N)NN=Cc1ccc2c(c1)OCCCO2 [Compound 2038, 1-[3,4-Dihydro-2H-benzo[b][1,4]dioxepin-7-yl)methylideneamino]guanidine Hydrochloride]",77%,3.98 µM,9%,
"COc1ccc(C=NNC(=N)N)cc1C(F)(F)F [Compound 2073, 1-[4-Methoxy-3-(trifluoromethyl)benzylideneamino]guanidine Hydrochloride]",51%,1.58 µM,13%,
"Cc1ccc(C=NNC(=N)N)cc1C [Compound 3019, 1-(3,4-Dimethylbenzylideneamino)guanidine Hydrochloride]",86%,2.51 µM,12%,
"CC(C)Oc1ccc(C=NNC(=N)N)cc1 [Compound 2025, 1-(4-Isopropoxybenzylideneamino)guanidine]",87%,3.98 µM,51%,3.98 µM
"CCC(=NNC(=N)N)c1ccc(Cl)c(Cl)c1 [Compound 2056, 1-(3,4-Dichlorophenyl)-1-(propylideneaminoguanidine) Hydrochloride]",73%,0.501 µM,6%,
"NC(N)=NN=Cc1ccc(Cl)c(C(F)(F)F)c1 [Compound 2035, 1-[4-Chloro-3-(trifluoromethyl)benzylideneamino]guanidine Hydrochloride]",114%,,45%,3.98 µM
"CC(=NNC(=N)N)c1ccc2c(c1)CCCC2 [Compound 3024, 1-[1-(5,6,7,8-Tetrahydronaphthalen-2-yl)ethylideneamino]guanidine Hydrochloride]",99%,0.398 µM,41%,1 µM
"CC(=NNC(=N)N)c1cc(C(F)(F)F)cc(C(F)(F)F)c1 [Compound 3028, 1-{1-[3,5-Bis-(trifluoromethyl)phenyl]ethylideneamino}guanidine Hydrochloride]",23%,1.26 µM,9%,

# The next lines start with the values.
Emax (NPFF2),EC50 (NPFF2),Emax (NPFF1),EC50 (NPFF1),SMILES
54%,5.01 µM,13%,,"Cc1cccc(C=NNC(=N)N)c1 [Compound 3018, 1-(3-Methylbenzylideneamino)guanidine Hydrochloride]"
80%,2.51 µM,20%,3.98 µM,"N=C(N)NN=Cc1ccc(C(F)(F)F)cc1 [Compound 4002, 1-[(4-Trifluoromethyl)benzylideneamino]guanidine Hydrochloride]"
65%,2.51 µM,24%,1.26 µM,"N=C(N)NN=Cc1ccc2ccccc2c1 [Compound 2075, 1-[Naphthalen-2-yl-methylideneamino]guanidine Hydrochloride]"
48%,3.98 µM,26%,3.98 µM,"N=C(N)NN=Cc1ccc(C(F)(F)F)cc1F [Compound 2060, 1-[2-Fluoro-4-(trifluoromethyl)benzylideneamino]guanidine Hydrochloride]"
41%,6.31 µM,41%,12.6 µM,"COc1ccc(C=NNC(=N)N)c(OC)c1 [Compound 4003, 1-(2,4-Dimethoxybenzylideneamino)guanidine Hydrochloride]"
56%,1.58 µM,9%,,"Cc1cc(C=NNC(=N)N)ccc1F [Compound 2012, 1-(4-Fluoro-3-methylbenzylideneamino)guanidine Hydrochloride]"
49%,10 µM,15%,,"COc1cccc(C=NNC(=N)N)c1OC [Compound 4004, 1-(2,3-Dimethoxybenzylideneamino)guanidine Hydrochloride]"
60%,0.501 µM,25%,1 µM,"N=C(N)NN=Cc1cccc(-c2ccccc2C(F)(F)F)c1 [Compound 2058, 1-[3-(2-Trifluoromethylphenyl)benzylideneamino]guanidine Hydrochloride]"
84%,6.31 µM,24%,7.94 µM,"COc1ccc2ccccc2c1C=NNC(=N)N [Compound 3007, 1-[1-(2-Methoxy-naphthalen-1-yl)methylideneamino]guanidine Hydrochloride]"
47%,0.794 µM,14%,,"COc1cccc(C=NNC(=N)N)c1OCc1ccccc1 [Compound 3006, 1-(2-Benzyloxy-3-methoxybenzylideneamino)guanidine Hydrochloride]"
78%,2.51 µM,36%,3.16 µM,"N=C(N)NN=Cc1ccc(C(F)(F)F)c(F)c1 [Compound 2063, 1-[3-Fluoro-4-(trifluoromethyl)benzylideneamino]guanidine Hydrochloride]"
50%,2 µM,11%,,"N=C(N)NN=Cc1ccc(F)c2ccccc12 [Compound 2072, 1-[(4-Fluoro-1-naphthalen-1-yl)methylideneamino]guanidine Hydrochloride]"
61%,3.16 µM,21%,0.398 µM,"Cc1ccc(C=NNC(=N)N)c(C)c1 [Compound 2077, 1-[2,4-Dimethylbenzylideneamino]guanidine Hydrochloride]"
64%,6.31 µM,47%,3.98 µM,"[H]/N=C(\N)NN=Cc1ccc(Cl)cc1 [Compound 4008, 1-(4-Chlorobenzylideneamino)guanidine Hydrochloride]"
54%,7.94 µM,9%,,"COc1ccc(C=NNC(=N)N)cc1F [Compound 2009, 1-(3-Fluoro-4-methoxybenzylideneamino)guanidine Hydrochloride]"
53%,3.16 µM,13%,,"N=C(N)NN=Cc1ccc(Br)cc1F [Compound 2018, 1-(4-Bromo-2-fluorobenzylideneamino)guanidine Hydrochloride]"
